Measurements: patent publication US6403531B1, “Herbicidal synergistic composition and method of weed control” (Syngenta Crop Protection, inc., priority 1997, dated 2002)

How the values were obtained:
Format in all cases: in vivo
Solanum = assay: Post-emergence herbicidal action
Source text: (§1) A synergistic effect exists whenever the action of the active ingredient combination I and II, III, IV, V, VI, VII, VIII, IX or X is greater than the sum of the actions of the active ingredients applied individually. The herbicidal action to be expected, We, for a given combination of two herbicides can be calculated as follows (see COLBY, S. R. “Calculating synergistic and antagonistic response of herbicide combinations”. Weeds 15, pages 20-22; 1967):
(§2) We=expected herbicidal action (% herbicidal action in comparison with untreated control) after treatment with the compounds of formula I and II, III, IV, V, VI, VII, VIII, IX or X at a rate of application of p+q kg of active ingredient per hectare.
(§3) The test plants are raised in plastics pots under greenhouse conditions as far as the 2- to 3-leaf stage. A standard soil is used as the cultivation substrate. At the 2- to 3-leaf stage, the herbicides are applied individually and as mixtures to the test plants. The test compounds are applied in the form of an aqueous suspension in 500 l of water/ha. The rates of application depend on the optimum concentrations determined under field conditions and greenhouse conditions. Evaluation of the tests is made after 11 and 22 days (DAA=day after application) in % action. 100% denotes that the plants have died, 0% denotes no phytotoxic action.

Xanthium = assay: Pre-emergence herbicidal action
Source text: as §1, §2
(§4) Monocotyledonous and dicotyledonous weeds and cultivated plants are sown in standard soil in plastics pots. Immediately after sowing, the test compounds are applied as an aqueous suspension (500 l of water/ha). The rates of application depend on the optimum concentrations determined under field conditions and greenhouse conditions. Evaluation of the tests is made after 15 and 27 days (DAA=day after application) in % action. 100% denotes that the plants have died, 0% denotes no phytotoxic action.

Sorghum hal. = assay: Herbicidal action; settings: titled pre-emergence (under Example B2)
Cassia sp. = assay: Post-emergence herbicidal action
Source text: as §1, §2, §3

Sorghum = assay: Post-emergence herbicidal action
Source text: as §1, §2, §3

Sesbania [1] = assay: Post-emergence herbicidal action
Source text: as §1, §2, §3

Abutilon [2] = assay: Post-emergence herbicidal action
Source text: as §1, §2, §3

Digitaria = assay: Post-emergence herbicidal action
Source text: as §1, §2, §3

Cyperus = assay: Herbicidal action
cotton = assay: Pre-emergence herbicidal action (cultivated plant)
Source text: as §1, §2, §4

Sesbania [3] = assay: Pre-emergence herbicidal action
Source text: as §1, §2, §4

Abutilon [4] = assay: Pre-emergence herbicidal action
Source text: as §1, §2, §4

Solanum nigrum = assay: Herbicidal action; settings: post-emergence

`N#Cc1cc(Br)c(O)c(Br)c1` [bromoxynil, bromoxinil] was tested, and the “herbicidal action on Solanum” value (Solanum; DAA 11, 500 g/ha) was 35% and the “herbicidal action on Solanum” value (Solanum; DAA 11, 1000 g/ha) was 40%.

For `CC1(C)CON(Cc2ccccc2Cl)C1=O` [clomazone], the “herbicidal action on Xanthium” value (Xanthium; DAA 15, 125 g/ha) was 10%, the “herbicidal action on Xanthium” value (Xanthium; DAA 15, 250 g/ha) was 25% and the “herbicidal action on Xanthium” value (Xanthium; DAA 15, 500 g/ha) was 60%.

`COc1cc(OC)nc(NC(=O)NOS(=O)c2ncccc2OCC(F)(F)F)n1.[Na+]` (centres unmarked) [compound of formula I] was tested, and the “herbicidal action on Sorghum hal.” value (Sorghum hal.; DAA 22, 1.88 g/ha) was 75%, the “herbicidal action on Cassia sp.” value (Cassia sp.; DAA 11, 1.88 g/ha) was 70% and the “herbicidal action on Solanum” value (Solanum; DAA 11, 7.5 g/ha) was 20%. The “herbicidal action on Sorghum” value (Sorghum; DAA 22, 1.88 g/ha) was 75%, the “herbicidal action on Sesbania” value (Sesbania [1]; DAA 11, 1.88 g/ha) was 70% and the “herbicidal action on Abutilon” value (Abutilon [2]; DAA 22, 1.88 g/ha) was 55%. For the same compound, the “herbicidal action on Digitaria” value (Digitaria; DAA 22, 1.88 g/ha) was 15%, the “herbicidal action on Cyperus” value (Cyperus; post-emergence, DAA 22, 1.88 g/ha) was 70% and the “herbicidal action on Cyperus” value (Cyperus; titled pre-emergence (under Example B2), DAA 11, 3.75 g/ha) was 50%. The “herbicidal action on cotton (damage)” value (cotton; DAA 27, 3.75 g/ha) was 10%, the “herbicidal action on Xanthium” value (Xanthium; DAA 15, 3.75 g/ha) was 85% and the “herbicidal action on Xanthium” value (Xanthium; DAA 15, 7.5 g/ha) was 90%. The “herbicidal action on Xanthium” value (Xanthium; DAA 27, 3.75 g/ha) was 96%, the “herbicidal action on Sesbania” value (Sesbania [3]; DAA 15, 3.75 g/ha) was 35% and the “herbicidal action on Sesbania” value (Sesbania [3]; DAA 27, 3.75 g/ha) was 25%. For the same compound, the “herbicidal action on Abutilon” value (Abutilon [4]; DAA 27, 3.75 g/ha) was 50%, the “herbicidal action on Solanum nigrum” value (Solanum nigrum; DAA 22, 1.88 g/ha) was 0% and the “herbicidal action on Solanum nigrum” value (Solanum nigrum; DAA 22, 3.75 g/ha) was 0%. For the same compound, the “herbicidal action on Solanum nigrum” value (Solanum nigrum; DAA 22, 7.5 g/ha) was 15%.

In the case of `CN(C)C(=O)Nc1cccc(C(F)(F)F)c1` [fluometuron], the “herbicidal action on Cyperus” value (Cyperus; titled pre-emergence (under Example B2), DAA 11, 250 g/ha) is reported as 0%, the “herbicidal action on Cyperus” value (Cyperus; titled pre-emergence (under Example B2), DAA 11, 500 g/ha) is reported as 25% and the “herbicidal action on Cyperus” value (Cyperus; titled pre-emergence (under Example B2), DAA 11, 1000 g/ha) is reported as 20%.

For `CP(=O)(O)CCC(N)C(=O)O` (centres unmarked) [glufosinate], the “herbicidal action on Sorghum” value (Sorghum; DAA 22, 250 g/ha) was 85%, the “herbicidal action on Abutilon” value (Abutilon [2]; DAA 22, 250 g/ha) was 55% and the “herbicidal action on Digitaria” value (Digitaria; DAA 22, 250 g/ha) was 75%. The “herbicidal action on Cyperus” value (Cyperus; post-emergence, DAA 22, 250 g/ha) was 35%.

For `CCc1cccc(C)c1N(C(=O)CCl)C(C)COC` (centres unmarked) [metolachlor], the “herbicidal action on Sorghum hal.” value (Sorghum hal.; DAA 22, 375 g/ha) was 0%, the “herbicidal action on Sorghum hal.” value (Sorghum hal.; DAA 22, 750 g/ha) was 0% and the “herbicidal action on Sorghum hal.” value (Sorghum hal.; DAA 22, 1500 g/ha) was 0%.

For `CNc1cnn(-c2cccc(C(F)(F)F)c2)c(=O)c1Cl` [norflurazon], the “herbicidal action on cotton (damage)” value (cotton; DAA 27, 250 g/ha) was 0%, the “herbicidal action on cotton (damage)” value (cotton; DAA 27, 500 g/ha) was 0% and the “herbicidal action on Xanthium” value (Xanthium; DAA 27, 250 g/ha) was 10%. The “herbicidal action on Xanthium” value (Xanthium; DAA 27, 500 g/ha) was 35%, the “herbicidal action on Sesbania” value (Sesbania [3]; DAA 27, 250 g/ha) was 10% and the “herbicidal action on Sesbania” value (Sesbania [3]; DAA 27, 500 g/ha) was 30%. For the same compound, the “herbicidal action on Abutilon” value (Abutilon [4]; DAA 27, 250 g/ha) was 60% and the “herbicidal action on Abutilon” value (Abutilon [4]; DAA 27, 500 g/ha) was 60%.

For `CCC(CC)Nc1c([N+](=O)[O-])cc(C)c(C)c1[N+](=O)[O-]` [pendimethalin], the “herbicidal action on Xanthium” value (Xanthium; DAA 15, 250 g/ha) was 0%, the “herbicidal action on Xanthium” value (Xanthium; DAA 15, 500 g/ha) was 0% and the “herbicidal action on Xanthium” value (Xanthium; DAA 15, 1000 g/ha) was 0%.

`CSc1nc(NC(C)C)nc(NC(C)C)n1` [prometryn] was tested, and the “herbicidal action on Xanthium” value (Xanthium; DAA 15, 250 g/ha) was 0%, the “herbicidal action on Sesbania” value (Sesbania [3]; DAA 15, 250 g/ha) was 10% and the “herbicidal action on Solanum nigrum” value (Solanum nigrum; DAA 22, 250 g/ha) was 0%. The “herbicidal action on Solanum nigrum” value (Solanum nigrum; DAA 22, 500 g/ha) was 0% and the “herbicidal action on Solanum nigrum” value (Solanum nigrum; DAA 22, 1000 g/ha) was 20%.

For `COc1cc(OC)nc(Sc2cccc(Cl)c2C(=O)[O-])n1.[Na+]` [pyrithiobac, pyrithiobac-sodium], the “herbicidal action on Cassia sp.” value (Cassia sp.; DAA 11, 25 g/ha) was 50%, the “herbicidal action on Cassia sp.” value (Cassia sp.; DAA 11, 50 g/ha) was 80% and the “herbicidal action on Cassia sp.” value (Cassia sp.; DAA 11, 100 g/ha) was 70%.

With `CCc1cccc(C)c1N(C(=O)CCl)[C@@H](C)COC` [α-metolachlor] the “herbicidal action on Cassia sp.” value (Cassia sp.; DAA 11, 250 g/ha) was 0%, the “herbicidal action on Cassia sp.” value (Cassia sp.; DAA 11, 500 g/ha) was 0% and the “herbicidal action on Cassia sp.” value (Cassia sp.; DAA 11, 1000 g/ha) was 0%. For the same compound, the “herbicidal action on Sesbania” value (Sesbania [1]; DAA 11, 250 g/ha) was 0%, the “herbicidal action on Sesbania” value (Sesbania [1]; DAA 11, 500 g/ha) was 0% and the “herbicidal action on Sesbania” value (Sesbania [1]; DAA 11, 1000 g/ha) was 0%.
